In US6680289B1, “Methods, compositions, and articles for odor control” (The Proctor & Gamble Company, priority 1999, dated 2004):

Assays:
[1] = cited from earlier work
[2] = Interaction of perfume components with cyclodextrin (CD); assay type: physicochemical; settings: perfume component with cyclodextrin
Description: The following table illustrates the molecular weight property of some of the preferred perfume versus non-preferred perfume components.

CD interaction [2] | SMILES | solubility in water [1]
– | ClC=CC[N+]12CN3CN(CN(C3)C1)C2.[Cl-] [Dowicil 200, 1-(3-Chlorallyl) -3,5,7-triaza-1-azoniaadamantane chloride] | freely soluble in water
significant | CCC(C)(O)CCCC(C)C (centres unmarked) [Tetrahydrolinalol] | –
